pIC50: −log10 of the molar value.
Target: T1, MMP-2 (Homo sapiens, UniProt P08253)
T1 construct: made in house; host or cells: MMP-2-transfected p2AHT2 cells
T1 sequence (P08253 110-660): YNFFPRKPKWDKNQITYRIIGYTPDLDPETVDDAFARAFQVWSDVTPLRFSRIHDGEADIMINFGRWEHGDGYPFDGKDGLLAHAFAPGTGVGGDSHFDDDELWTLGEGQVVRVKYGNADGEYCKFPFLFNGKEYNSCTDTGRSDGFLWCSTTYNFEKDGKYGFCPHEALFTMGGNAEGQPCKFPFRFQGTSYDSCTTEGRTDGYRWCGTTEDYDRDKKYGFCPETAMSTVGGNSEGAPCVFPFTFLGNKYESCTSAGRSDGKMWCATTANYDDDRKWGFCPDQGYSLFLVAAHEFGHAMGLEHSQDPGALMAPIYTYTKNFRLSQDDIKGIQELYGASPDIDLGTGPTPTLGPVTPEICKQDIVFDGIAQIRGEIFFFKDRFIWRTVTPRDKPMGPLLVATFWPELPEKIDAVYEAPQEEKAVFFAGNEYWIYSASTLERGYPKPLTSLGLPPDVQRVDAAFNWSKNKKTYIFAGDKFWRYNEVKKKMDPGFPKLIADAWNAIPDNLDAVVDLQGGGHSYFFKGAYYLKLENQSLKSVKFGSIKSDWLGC
Test: In vitro MMP inhibition, IC50 determination (fluorogenic substrate I)
Format: biochemical
Conditions: value in parenthesis; read-out: MMP-2 (IC-50)
Protocol: Several hydroxamic acids and salts thereof were analyzed in in vitro assays to determine their ability to inhibit the MMP cleavage of peptide substrates. […] and IC50 constants were calculated from the assayed hydroxamic acid-MMP interactions.
Human recombinant MMP-1, MMP-2, MMP-9, MMP-13, and MMP-14 were used in this assay. All enzymes were prepared in Assignee's laboratories following usual laboratory procedures. Protocols for the preparation and use of these enzymes are available in the scientific literature. See, e.g., Enzyme Nomenclature (Academic Press, San Diego, Calif., 1992) (and the citations therein). See also, Freije et al., “Molecular cloning and expression of collagenase-3, a novel human matrix metalloproteinase produced by breast carcinomas,” J Biol. Chem., 269(24), 16766-16773 (1994).
The MMP-2 proenzyme was purified by gelatin Sepharose chromatography from MMP-2-transfected p2AHT2 cells provided by Dr. Gregory Goldberg of Washington University (St. Louis, Mo.).
All MMPs were activated using 4-aminophenylmercuric acetate (“APMA”, Sigma Chemical, St. Louis, Mo.) or trypsin. MMP-9 also was activated using human recombinant MMP-3 (purified in Assignee's laboratory following standard cloning and purification techniques).
Two fluorogenic, methoxycoumarin-containing polypeptide substrates were used in the MMP inhibition assays: [drawing 427] Here, “Dpa” is 3-(2,4-dinitrophenyl)-L-2,3-diaminopropionyl group, and “MCA” is 7-methoxycoumarin-4-yl acetyl. Substrate (I) was purchased from Baychem (Redwood City, Calif.), and substrate II was prepared Assignee's laboratory. Substrate I was used in the IC50 determination assays, while substrate II was used in the Ki determination assays. In the absence of MMP inhibitory activity, either substrate is cleaved at the Gly-Leu peptide bond. This cleavage separates the highly fluorogenic peptide from the 2,4-dinitrophenyl quencher, thus resulting in increase of fluorescent intensity.
The stock solutions of the assayed hydroxamic acids (or salts thereof) were prepared in 1% dimethyl sulfoxide (DMSO). These stock solutions were diluted in Buffer A (100 mM Tris-HCl, 100 mM NaCl, 10 mM CaCl2, 0.05% polyoxyethylene 23 lauryl ether, pH 7.5) to obtain solutions with different hydroxamic acid concentrations, i.e., assay solutions with different concentrations of the assayed MMP inhibitory compound. The experiment controls contained the same amount of Buffer A/DMSO as the assayed sample, but contained no hydroxamic acid (or salt thereof).
The assays from which the IC50 determinations were made were performed as follows. The MMPs were activated with either trypsin or APMA (4-aminophenylmercuric acetate, Sigma Chemical, St. Louis, Mo.). The assayed hydroxamic acid samples were incubated in Microfluor™ White Plates (Dynatech, Chantilly, Va.) and analyzed on a Perkin Elmer L550 plate reader (Norwalk, Conn.). The excitation wavelength was 328 nm, and the emission wavelength—415 nm. All samples (assayed hydroxamic acids and controls) were incubated in separate plates at room temperature in the presence of 4 μM of MMP substrate (I). As stated in the previous paragraph, samples containing varying concentrations of the same assayed hydroxamic acid were prepared. Inhibition was measured as a reduction in fluorescent intensity as a function of MMP inhibitor concentration.
The above protocols were used to determine IC50 constants and Ki values for the compounds in Examples 1-27 above. All values in Table 2 are given in nM units. The IC50 measurements are in parenthesis.

SMILES | pIC50
COCCN1CCC(C(=O)NO)(S(=O)(=O)N2CCN(c3ccccc3)CC2)CC1 [Example 195] | 8.62
COCCN1CCC(C(=O)NO)(S(=O)(=O)N2CCN(c3nc4ccccc4o3)CC2)CC1 [Example 196] | 7.52
CCCCCc1ccc(N2CCN(S(=O)(=O)C3(C(=O)NO)CCOCC3)CC2)nn1 [Example 197] | 7.72
O=C(NO)C1(S(=O)(=O)N2CCN(c3ccc(Cl)nn3)CC2)CCOCC1 [Example 198] | 7.74
COCCN1CCC(C(=O)NO)(S(=O)(=O)N2CCN(c3ccc(Br)cc3)CC2)CC1 [Example 201] | > 10.00
COCCN1CCC(C(=O)NO)(S(=O)(=O)N2CCN(c3ccc(OC(F)(F)F)cc3)CC2)CC1 [Example 202] | > 10.00
O=C(NO)C1(S(=O)(=O)N2CCN(c3ccc(OC(F)(F)F)cc3)CC2)CCN(C2CC2)CC1 [Example 203] | > 10.00

Next, values leading:

pIC50 | SMILES
8.72 | CCCC(C)Cc1ccc(N2CCN(S(=O)(=O)C3(C(=O)NO)CCN(CCOC)CC3)CC2)cc1 (stereo not drawn) [Example 189]
8.80 | CCC(C)Cc1ccc(N2CCN(S(=O)(=O)C3(C(=O)NO)CCN(CCOC)CC3)CC2)cc1 (stereo not drawn) [Example 190]
> 10.00 | COCCN1CCC(C(=O)NO)(S(=O)(=O)N2CCN(c3ccc(CCCCC(C)C)cc3)CC2)CC1 [Example 191]
8.89 | COCCN1CCC(C(=O)NO)(S(=O)(=O)N2CCN(c3ccc(CC(C)C)cc3)CC2)CC1 [Example 192]
9.70 | CCc1ccc(N2CCN(S(=O)(=O)C3(C(=O)NO)CCN(CCOC)CC3)CC2)cc1 [Example 193]
9.30 | COCCN1CCC(C(=O)NO)(S(=O)(=O)N2CCN(c3ccc(C)cc3)CC2)CC1 [Example 194]
> 10.00 | CCCCCCc1ccc(N2CCN(S(=O)(=O)C3(C(=O)NO)CCN(CCOC)CC3)CC2)cc1 [Example 199]
> 10.00 | CCCc1ccc(N2CCN(S(=O)(=O)C3(C(=O)NO)CCN(CCOC)CC3)CC2)cc1 [Example 200]
